Relative viability data for 1 cell line are collected here from the supplement of paper PMC10307832.

Holding throughout (assay): relative viability (nuclei count vs DMSO), 5 days (fraction); higher = more cells survive
Compound in experiment [1]: CC1(C)CNc2cc(NC(=O)c3cccnc3NCc3ccncc3)ccc21 [Motesanib] + COc1cc2c(Oc3ccc(NC(=O)C4(C(=O)Nc5ccc(F)cc5)CC4)cc3F)ccnc2cc1OCCCN1CCOCC1 [Foretinib] (partner 0.25 µM)
A digest of the protocol: (§1)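 Lung cancer cell lines were pin-tool dosed in 1536-well plates on the day after seeding, with either a lone drug or a fixed anchor-drug dose plus five library-drug doses (not always all listed) in √10 steps. Nuclei were counted on 4× images after 5 days. Relative viability is the ratio of treated-well to vehicle-well nuclei counts, with each value a median of duplicate plates.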

Compound in experiment [2]: C[C@@]1(C(=O)Nc2ccc(F)nc2)CCCN1c1nc(Nc2cc(C3CC3)n[nH]2)c2cccn2n1 + CC(=O)c1c(C)c2cnc(Nc3ccc(N4CCNCC4)cn3)nc2n(C2CCCC2)c1=O [Palbociclib] (partner 0.5 µM)
A digest of the protocol:
as §1

Compound in experiment [3]: CC1(C)CNc2cc(NC(=O)c3cccnc3NCc3ccncc3)ccc21 [Motesanib]
In a few lines:
(§2)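 Cells of lung cancer lines were placed in 1536-well plates and kept overnight at 37 °C. Pinning then delivered five library-drug doses (not always all listed), spaced by √10, onto plates anchored with vehicle, and the cells were left 5 days without changing medium. One step fixed, permeabilised and stained them with Hoechst, and MetaXpress counted nuclei in 4× images. Viability, as a median over plates, is treated-well nuclei divided by vehicle-well nuclei, with acceptance only at control CV below 25% and at least one doubling.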

Compound in experiment [4]: C[C@@]1(C(=O)Nc2ccc(F)nc2)CCCN1c1nc(Nc2cc(C3CC3)n[nH]2)c2cccn2n1
In a few lines:
as §2

UMC-11: the relative viability in experiment [1] (first compound 0.01 µM) is 0.998; in experiment [1] (first compound 0.03162 µM), 1.08; in experiment [1] (first compound 0.1 µM), 0.985; in experiment [1] (first compound 0.3162 µM), 1.08; in experiment [1] (first compound 1 µM) it was 1.2; in experiment [2] (first compound 0.04 µM), 0.31. For the same cell line, the relative viability in experiment [2] (first compound 0.1265 µM) was found to be 0.312; in experiment [2] (first compound 0.4 µM) it was 0.32; in experiment [2] (first compound 1.265 µM) it was 0.273; in experiment [3] (0.01 µM), 0.951; in experiment [3] (0.03162 µM), 1.07; in experiment [3] (0.1 µM) it was 0.872. The relative viability in experiment [3] (0.3162 µM) is 1; in experiment [3] (1 µM), 1.13; in experiment [4] (0.04 µM), 0.981; in experiment [4] (0.1265 µM), 1.03; in experiment [4] (0.4 µM), 0.907; in experiment [4] (1.265 µM), 0.797.
